Experimental data as given in patent US7351690B2, “Knockout identification of target-specific sites in peptides” (priority 2000, dated 2008).
Square brackets hold non-standard residues; d marks the D form. Primed or numbered codes have the meaning given here. Ends that are not written are not given here. pGlu = O=C1CC[C@@H](C(=O)O)N1; Nle = CCCC[C@H](N)C(=O)O; dH′ = not defined here

test system: bombesin receptor; assay: competitive binding assay, 125I-Bombesin, rat brain membranes; details: not given
Protocol: Rat brain membranes were utilized as the source of bombesin receptor. The competitive binding assay was performed using a procedure as described by Moody T W, Perk C B, Rivier J, Brown, M R. (Proc Natl Acad Sci USA. 75:5372-5376, […]) and adapted to a 96 well format. An aliquot of membranes taken in assay buffer (50 mM Tris and HCl, pH 7.4 containing 1 mg/mL BSA and 2 μg/mL bacitracin) was incubated with 0.01 nM of ^125I-Bombesin with or without varying concentrations of the test compound for 60 min at 4° C. The incubation was terminated by rapid filtration of the assay mixture, followed by washing the filters with ice-cold buffer. The filters were dried and counted in a gamma counter for retained radioactivity. Non-specific binding was measured by including 1 μM Bombesin in the assay tube. The assay was performed in triplicate and results calculated to determine percentage inhibition of the ^125I-Bombesin binding to its receptors by a test compound. The parent polypeptide is shown in Table 6, with metallopeptides having Cys inserted as shown.

Substance	binding to bombesin receptor, in words
D-Phe-Gln-Trp-Ala-Val-Cys-NH2 ([dF]QWAVC-NH2; also: oxorhenium(V) N3S1 chelate via Cys (Re(V)=O)) [11-3]	high negative percent inhibition
D-Phe-Gln-Trp-Cys-Ala-Val-Gly-His-Leu-Leu-NH2 ([dF]QWCAVGHLL-NH2; also: rhenium complex (oxorhenium(V) N3S1 chelate via Cys)) [8-7]	least activity
Pyr-Gln-Arg-Leu-Gly-Asn-Gln-Cys-Ala-Val-Gly-His-Leu-Nle-NH2 (QRLGNQCAVGHL; N-term pyroglutamate; Nle-NH2; rhenium complex; printed: Gln-Arg-Leu-Gly-Asn-Gln-Cys-Ala-Val-Gly-His-Leu-) [7-7]	Complete inactivity
D-Phe-Gln-Trp-Ala-Cys-Val-Gly-His-Leu-Leu-NH2 ([dF]QWACVGHLL-NH2; also: oxorhenium(V) N3S1 chelate via Cys (Re(V)=O)) [8-6]	least activity
Gln-Trp-Ala-Val-Cys-NH2 (QWAVC-NH2; not fully specified (bridges); printed as Gln-Trp-Ala-Val-Cys-NH2; also: oxorhenium(V) N3S1 chelate (Re(V)=O)) [11-13]	high negative percent inhibition

same assay, conditions: inhibition of 0.01 nM 125I-Bombesin binding; rat brain membranes; test concentration not given

Substance	% Inhibition [%]
D-Phe-Gln-Trp-Ala-Val-D-Cys-His-Leu-Leu-NH2 (chain 1 [dF]QWAV; chain 2 [dC]HLL-NH2; not fully specified (bridges); also: chain 2 continues chain 1 in one peptide (Val-D-Cys bond), Re-peptide (rhenium complex)) [10-2]	64
D-Phe-Gln-Trp-Ala-Val-Gly-His-Cys-Leu-Leu-NH2 ([dF]QWAVGHCLL-NH2; also: rhenium complex (oxorhenium(V) N3S1 chelate via Cys)) [8-3]	49
D-Phe-Gln-Trp-Ala-Val-Cys-NH2 ([dF]QWAVC-NH2; also: oxorhenium(V) N3S1 chelate via Cys (Re(V)=O)) [11-3]	−81
Pyr-Gln-Arg-Leu-Gly-Asn-Gln-Trp-Ala-Val-Cys-Gly-His-Leu-Nle-NH2 ([pGlu]QRLGNQWAVCGHL[Nle]-NH2; numbers in words are those of the source; also: oxorhenium(V) N3S1 chelate (Re=O) with Cys) [6-5]	67
Pyr-Gln-Arg-Leu-Gly-Asn-Gln-Trp-Ala-Cys-Gly-His-Leu-Nle-NH2 (QRLGNQWACGHL; N-terminal pyroglutamate; C-terminal Nle-amide; printed: Gln-Arg-Leu-Gly-Asn-Gln-Trp-Ala-Cys-Gly-His-Leu-) [7-5]	61
D-Phe-Gln-Trp-Cys-Val-Gly-His-Leu-Leu-NH2 ([dF]QWCVGHLL-NH2; also: oxorhenium(V) N3S1 chelate complex (Re=O)) [9-6]	43
Pyr-Gln-Arg-Leu-Gly-Asn-Gln-Trp-Ala-Val-Gly-Cys-His-Leu-Nle-NH2 ([pGlu]QRLGNQWAVGCHL[Nle]-NH2; numbers in words are those of the source; also: oxorhenium(V) N3S1 chelate (Re=O) with Cys) [6-4]	70
Pyr-Gln-Arg-Leu-Gly-Asn-Gln-Trp-Ala-Val-Gly-Cys-Leu-Nle-NH2 (QRLGNQWAVGCL; N-terminal pyroglutamate; C-terminal Nle-amide; printed: Gln-Arg-Leu-Gly-Asn-Gln-Trp-Ala-Val-Gly-Cys-Leu-) [7-3]	82
Pyr-Gln-Arg-Cys-Leu-Gly-Asn-Gln-Trp-Ala-Val-Gly-His-Leu-Nle-NH2 ([pGlu]QRCLGNQWAVGHL[Nle]-NH2; numbers in words are those of the source; also: oxorhenium(V) N3S1 chelate (Re(V)=O)) [6-12]	97
Pyr-Gln-Arg-Leu-Gly-Asn-Gln-Cys-Trp-Ala-Val-Gly-His-Leu-Nle-NH2 ([pGlu]QRLGNQCWAVGHL[Nle]-NH2; numbers in words are those of the source; also: oxorhenium(V) N3S1 chelate (Re(V)=O)) [6-8]	75
Pyr-Gln-Arg-Leu-Gly-Asn-Gln-Trp-Ala-Val-Gly-His-Cys-Nle-NH2 (QRLGNQWAVGHC; N-term pyroglutamate; Nle-NH2; rhenium complex; printed: Gln-Arg-Leu-Gly-Asn-Gln-Trp-Ala-Val-Gly-His-Cys-) [7-2]	66
Pyr-Gln-Arg-Leu-Gly-Asn-Gln-Trp-Ala-Val-Gly-His-Leu-Cys-NH2 (QRLGNQWAVGHLC; N-term pyroglutamate; C-terminal amide; rhenium complex; printed: Gln-Arg-Leu-Gly-Asn-Gln-Trp-Ala-Val-Gly-His-Leu-Cys-) [7-1]	73
D-Phe-Gln-Trp-D-Ala-Val-Cys-His-Leu-Leu-NH2 ([dF]QW[dA]VCHLL-NH2; numbers in words are those of the source; also: oxorhenium(V) N3S1 chelate complex (Re=O)) [10-4]	2
Pyr-Gln-Arg-Leu-Gly-Asn-Gln-Trp-Ala-Val-Gly-His-Leu-Nle-Cys-NH2 ([pGlu]QRLGNQWAVGHL[Nle]C-NH2; numbers in words are those of the source; also: rhenium complex (oxorhenium(V) N3S1 tetradentate chelate via Re=O core)) [6-1]	82
Pyr-Gln-Arg-Leu-Gly-Asn-Gln-Trp-Ala-Val-Gly-His-Leu-Cys-Nle-NH2 (QRLGNQWAVGHLC; N-term pyroglutamate; Nle-NH2; rhenium complex; printed: Gln-Arg-Leu-Gly-Asn-Gln-Trp-Ala-Val-Gly-His-Leu-Cys-) [6-2]	91
D-Phe-Gln-Trp-Ala-Val-Cys-His-Leu-NH2 ([dF]QWAVCHL-NH2; also: oxorhenium(V) N3S1 chelate via Cys (Re(V)=O)) [11-1]	98
Gln-Trp-Ala-Val-Cys-His-Leu-Leu-NH2 [11-7] (QWAVCHLL-NH2; not fully specified (bridges); printed as Gln-Trp-Ala-Val-Cys-His-Leu-Leu-NH2; also: oxorhenium(V) N3S1 chelate (Re(V)=O))	5

Substance	% Inhibition [%]
D-Phe-Gln-Trp-Cys-Ala-Val-Gly-His-Leu-Leu-NH2 ([dF]QWCAVGHLL-NH2; also: rhenium complex (oxorhenium(V) N3S1 chelate via Cys)) [8-7]	8
D-Phe-Gln-Trp-Ala-Val-Cys-D-His-Leu-Leu-NH2 ([dF]QWAVC[dH′]LL-NH2; also: oxorhenium(V) N3S1 chelate via Cys (Re(V)=O)) [10-1]	10
Pyr-Gln-Arg-Leu-Gly-Asn-Gln-Cys-Ala-Val-Gly-His-Leu-Nle-NH2 (QRLGNQCAVGHL; N-term pyroglutamate; Nle-NH2; rhenium complex; printed: Gln-Arg-Leu-Gly-Asn-Gln-Cys-Ala-Val-Gly-His-Leu-) [7-7]	−2
D-Phe-Gln-Trp-Ala-Val-Gly-His-Leu-Cys-Leu-NH2 ([dF]QWAVGHLCL-NH2; also: rhenium complex (oxorhenium(V) N3S1 chelate via Cys)) [8-2]	75
Pyr-Gln-Arg-Leu-Gly-Asn-Cys-Trp-Ala-Val-Gly-His-Leu-Nle-NH2 (QRLGNCWAVGHL; N-term pyroglutamate; Nle-NH2; rhenium complex; printed: Gln-Arg-Leu-Gly-Asn-Cys-Trp-Ala-Val-Gly-His-Leu-) [7-8]	84
D-Phe-Gln-Trp-Ala-Cys-Val-Gly-His-Leu-Leu-NH2 ([dF]QWACVGHLL-NH2; also: oxorhenium(V) N3S1 chelate via Cys (Re(V)=O)) [8-6]	35
D-Phe-Gln-Trp-Ala-Val-Cys-His-NH2 ([dF]QWAVCH-NH2; also: oxorhenium(V) N3S1 chelate via Cys (Re(V)=O)) [11-2]	25
D-Phe-Gln-Trp-Ala-Val-Cys-His-Leu-Leu-NH2 ([dF]QWAVCHLL-NH2; also: Re metal complex (oxorhenium(V) N3S1 chelate via Cys)) [9-4]	75
D-Phe-Gln-D-Trp-Ala-Val-Cys-His-Leu-Leu-NH2 ([dF]Q[dW]AVCHLL-NH2; numbers in words are those of the source; also: oxorhenium(V) N3S1 tetradentate complex via Cys) [10-5]	6
Pyr-Gln-Arg-Leu-Gly-Asn-Gln-Trp-Ala-Cys-Val-Gly-His-Leu-Nle-NH2 ([pGlu]QRLGNQWACVGHL[Nle]-NH2; numbers in words are those of the source; also: oxorhenium(V) N3S1 chelate (Re=O) with Cys) [6-6]	83
Pyr-Gln-Arg-Leu-Gly-Asn-Gln-Trp-Ala-Val-Cys-His-Leu-Nle-NH2 (QRLGNQWAVCHL; N-terminal pyroglutamate; C-terminal Nle-amide; printed: Gln-Arg-Leu-Gly-Asn-Gln-Trp-Ala-Val-Cys-His-Leu-) [7-4]	81
Gln-Trp-Ala-Val-Cys-NH2 (QWAVC-NH2; not fully specified (bridges); printed as Gln-Trp-Ala-Val-Cys-NH2; also: oxorhenium(V) N3S1 chelate (Re(V)=O)) [11-13]	−50
Trp-Ala-Val-Cys-NH2 (WAVC-NH2; not fully specified (bridges); printed as Trp-Ala-Val-Cys-NH2; also: oxorhenium(V) N3S1 chelate (Re=O) with Cys) [11-14]	8
D-Phe-Gln-Trp-Ala-Val-Gly-His-Cys-Leu-NH2 ([dF]QWAVGHCL-NH2; also: rhenium complex (oxorhenium(V) N3S1 chelate via Cys)) [9-2]	35
Pyr-Gln-Arg-Leu-Gly-Cys-Asn-Gln-Trp-Ala-Val-Gly-His-Leu-Nle-NH2 ([pGlu]QRLGCNQWAVGHL[Nle]-NH2; numbers in words are those of the source; also: rhenium complex (oxorhenium(V) N3S1 tetradentate chelate via Re=O core)) [6-10]	93
D-Phe-Gln-Trp-Ala-Val-Cys-Gly-His-Leu-Leu-NH2 ([dF]QWAVCGHLL-NH2; also: oxorhenium(V) N3S1 chelate via Cys (Re(V)=O)) [8-5]	70
